Values of other authors as cited in patent US20060160157A1, “Method, compositions and classification for tumor diagnostics and treatment” (priority 2005, published 2006).

Assays:
[1] = pH change 7.5 to 4.0
GRP-R = GRP-R (Homo sapiens, UniProt P30550); settings: radiolabeled bombesin as radioligand
Sequence of GRP-R (P30550 whole entry, species assumed): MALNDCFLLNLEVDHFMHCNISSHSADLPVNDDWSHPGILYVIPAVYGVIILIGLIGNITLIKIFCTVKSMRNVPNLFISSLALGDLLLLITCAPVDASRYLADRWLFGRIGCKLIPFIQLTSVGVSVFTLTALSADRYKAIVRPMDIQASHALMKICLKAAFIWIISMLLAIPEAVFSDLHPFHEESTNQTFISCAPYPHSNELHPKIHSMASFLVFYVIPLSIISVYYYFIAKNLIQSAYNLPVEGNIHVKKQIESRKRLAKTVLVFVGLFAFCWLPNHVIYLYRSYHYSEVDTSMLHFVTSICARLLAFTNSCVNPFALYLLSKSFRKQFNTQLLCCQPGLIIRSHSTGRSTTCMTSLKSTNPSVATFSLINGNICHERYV

Row | Substance | change in the ka rate constant (association) [1] [times] | change in the kd rate constant (dissociation) [1] | GRP-R binding selectivity (rank order of affinity) (GRP-R)
1 | growth hormone | 1.7 | 1,600 times | 
2 | neuromedin |  |  | GRP >bombesin> neuromedin
